Reference: patent US8119645B2, “Fungicide hydroximoyl-tetrazole derivatives” (Bayer Cropscience AG, priority 2006, dated 2012)

Experiment: logP by reversed-phase HPLC (EEC Directive 79/831 Annex V.A8)
Type: physicochemical
Conditions: HPLC C18, 40° C., 0.1% aqueous formic acid / acetonitrile gradient
Description: Temperature: 40° C.; Mobile phases: 0.1% aqueous formic acid and acetonitrile; linear gradient from 10% acetonitrile to 90% acetonitrile.

Cc1nnnn1C(=NOCc1csc(NC(=O)COCc2ccccc2)n1)c1ccc(Br)s1 [Compound 95]
LogP: 3.76

CCCCCCCCC(=O)Nc1nc(CON=C(c2ccc(-c3ccc(Cl)c(Cl)c3)o2)n2nnnc2C)cs1 [Compound 83]
LogP: 5.85

C=CCC(=O)Nc1nc(CON=C(c2ccsc2Cl)n2nnnc2C)cs1 [Compound 6]
LogP: 2.73

COCCOC(=O)Nc1nc(CON=C(c2ccc(Cl)s2)n2nnnc2C)cs1 [Compound 112]
LogP: 3.05

CCCCCC(=O)Nc1nc(CON=C(c2cc(-c3ccccc3)c(Cl)s2)n2nnnc2C)cs1 [Compound 80]
LogP: 4.88

Cc1nnnn1C(=NOCc1cccc(NC(=O)C(C)(C)C)n1)c1ccsc1Cl [Compound 2]
LogP: 3.27

Cc1nnnn1C(=NOCc1csc(NC(=O)C2CCCC2)n1)c1ccsc1Cl [Compound 7]
LogP: 3.3

Cc1nnnn1C(=NOCc1csc(NC(=O)OCCc2ccccc2)n1)c1ccc(Cl)s1 [Compound 110]
LogP: 4.24

Cc1nnnn1C(=NOCc1csc(NC(=O)C(C)C)n1)c1ccsc1Cl [Compound 12]
LogP: 2.86

Cc1nnnn1C(=NOCCc1csc(NC(=O)C(C)(C)C)n1)c1ccsc1 [Compound 51]
LogP: 3.19

Cc1nnnn1C(=NOCc1csc(NC(=O)CCCCl)n1)c1ccsc1 [Compound 34]
LogP: 2.67

C=CCC(=O)Nc1nc(CON=C(c2ccc(C)o2)n2nnnc2C)cs1 [Compound 69]
LogP: 2.42

COCCOCC(=O)Nc1nc(CON=C(c2ccsc2)n2nnnc2C)cs1 [Compound 48]
LogP: 2.28

CCCCCOC(=O)Nc1cccc(CON=C(c2ccsc2Cl)n2nnnc2C)n1 [Compound 16]
LogP: 4.19

Cc1nnnn1C(=NOCc1csc(NC(=O)CCc2ccccc2)n1)c1ccsc1 [Compound 33]
LogP: 3.14

Cc1ccc(C(=NOCc2csc(NC(=O)CCc3ccccc3)n2)n2nnnc2C)o1 [Compound 61]
LogP: 3.15

COCCOC(=O)Nc1nc(CON=C(c2ccc(C)s2)n2nnnc2C)cs1 [Compound 130]
LogP: 2.76

Cc1ccc(C(=NOCc2csc(NC(=O)CCCc3ccccc3)n2)n2nnnc2C)o1 [Compound 60]
LogP: 3.4

Cc1nnnn1C(=NOCc1csc(NC(=O)OCc2ccccc2)n1)c1ccc(Cl)s1 [Compound 109]
LogP: 3.93

CCCCCC(=O)Nc1nc(CON=C(c2ccc(-c3ccccc3)s2)n2nnnc2C)cs1 [Compound 57]
LogP: 4.58

Cc1ccc(C(=NOCc2cccc(NC(=O)NCCc3ccccc3)n2)n2nnnc2C)s1 [Compound 128]
LogP: 3.06

COCCOC(=O)Nc1nc(CON=C(c2ccc(Br)s2)n2nnnc2C)cs1 [Compound 99]
LogP: 3.1

Cc1ccc(C(=NOCc2csc(N)n2)n2nnnc2C)o1 [Compound 58]
LogP: 1.47

Cc1nnnn1C(=NOCc1csc(NC(=O)CCc2ccccc2)n1)c1ccc(Br)s1 [Compound 89]
LogP: 3.76

Cc1nnnn1C(=NOCc1csc(NC(=O)C2CC2)n1)c1ccc(Cl)s1 [Compound 101]
LogP: 3

Cc1ccc(C(=NOCc2csc(NC(=O)C(C)(C)C)n2)n2nnnc2C)s1 [Compound 115]
LogP: 3.42

Cn1nnnc1C(=NOCc1csc(NC(=O)OCCc2ccccc2)n1)c1csc(-c2ccccc2)n1 [Compound 166]
LogP: 4.06

Cc1nnnn1C(=NOCc1csc(NC(=O)C2CC2)n1)c1ccc(-c2ccccc2)s1 [Compound 55]
LogP: 3.7

CCCC(=O)Nc1nc(CON=C(c2ccc(-c3ccc(Cl)c(Cl)c3)o2)n2nnnc2C)cs1 [Compound 82]
LogP: 4.11

Cc1nnnn1C(=NOCc1csc(N)n1)c1ccc(Br)s1 [Compound 86]
LogP: 2.07

CCCCCCCCNC(=O)Nc1nc(CON=C(c2ccsc2)n2nnnc2C)cs1 [Compound 23]
LogP: 3.26

C=CCC(=O)Nc1nc(CON=C(c2ccc(Br)s2)n2nnnc2C)cs1 [Compound 97]
LogP: 3.08

Cc1nnnn1C(=NOCc1csc(NC(=O)CCCCl)n1)c1ccsc1Cl [Compound 5]
LogP: 3

Cc1nnnn1C(=NOCc1csc(NC(=O)C2CCCCC2)n1)c1ccsc1Cl [Compound 8]
LogP: 4.48
